Source: US11046647B2, “Activators of the unfolded protein response” (The Board of Trustees of the University of Illinois, priority 2018, dated 2021)

Tests used:
[1] = system: protein synthesis in Caov-3 cells; assay: Protein synthesis inhibition (35S-methionine incorporation), Caov-3; assay type: cell-based, human; settings: 1,000 nM
Protocol: ERα positive Caov-3, human ovarian cancer cells, were treated for the indicated times with 1,000 nM BHPI or 1,000 nM (−)-105. Cells were briefly labeled with ^35S-methionine. Incorporation of labeled ^35S-methionine into protein was determined by trichloroacetic acid precipitation and trapping of precipitated protein, but not free amino acids, in small Whatman hardened ashless filters. After solubilizing the protein in the filters with base and neutralization with acid, the samples were counted in a liquid scintillation counter. Shown is the average (n≥3) percent inhibition of protein synthesis compared to the 0-time sample. The near quantitative inhibition of protein synthesis by (−)-105 is consistent with (−)-105 inducing lethal hyperactivation of the PERK arm of the UPR. Even non-growing cells are constantly degrading protein and making new proteins. Cells in which nearly all (>90%) of protein synthesis is inhibited cannot grow and will ultimately die.

[2] = system: intracellular ATP levels in TYS-Luc cells; assay: Intracellular ATP levels, TYS-Luc cells; assay type: cell-based, human; settings: 1,000 nM
Protocol: TYS-Luc cells were maintained DMSO vehicle (Veh), 1,000 nM BHPI, 1,000 nM (−)-105 with and without 10,000 nM thapsigargin (THG) for the indicated times. ATP levels were determines using a kit and relative ATP levels were from a standard curve. […] (n=3±SEM).

[3] = system: sp-XBP1 mRNA (unfolded protein response); assay: Induction of spliced XBP-1 mRNA (qRT-PCR), T47D-luciferase cells; assay type: cell-based, human; settings: 100 nM
Protocol: ERα positive T47D-luciferase human breast cancer cells, were maintained for the indicated times in vehicle (Ctl, Control), 100 nM BHPI or 100 nM (−)-105. At the indicated times RNA was isolated and levels of sp-XBP1 mRNA quantitated by qRT-PCR. (n=3 ±SEM).

TYS-Luc cells = assay: Long-term cell culture experiment (treat 2 weeks, regrow 4 weeks), MTS, TYS-Luc; assay type: cell-based, human
Protocol: To simulate the effect of several weeks of treatment of a tumor in a mouse xenograft, long-term cell culture experiments were performed. TYS-Luc cells (T47DERαY537S-Luc cells; ERαY537S is the most lethal ERα mutation seen in metastatic breast cancer) were plated at 4,000 cells/well in 96 well plates. […] After 2 weeks (medium change every 2 days) cell number was determined using MTS and a standard curve of absorbance versus cell number for TYS-Luc cells. Notes: (i) Bars denote the BHPI and (−)-105 arms of the experiment. No drug is present during regrow. […] This allows any surviving cells to regrow. After 4 weeks the cells were assayed using MTS. […] (Note: Visual inspection of the wells confirmed that there were no cells in the well treated for 2 weeks with active (−)-105.) To test whether the cells that regrew after BHPI treatment were resistant to BHPI they were re-treated for another cycle (BHPI Retreat) and shown to retain sensitivity to BHPI killing. (n=8 biological replicates ±SEM.

[4] = system: ERα positive and ERα negative cells; assay type: cell-based
Protocol: ALAMAR BLUE RAPTINAL ASSAYS: Cells were plated at 4,000-10,000 cells/well (96 well plate), usually in 50 μl of medium. After about 18 hours, an additional 50 μl of medium containing 2× the desired final concentration of the test compound (C-105) was added to each well. After 24 hours Alamar Blue reagent was added and fluorescence in the wells was read (BMG PheraStar or Molecular Devices Spectra Max M3 Microplate Reader). % relative death was determined by setting the reading for raptinal-treated cells to 100% dead cells and the reading for vehicle-treated cells to 0% dead cells.
ERα positive MCF-7 breast cancer, Caov-3 ovarian cancer and ECC-1 uterine cancer cells and ERα negative MDA-MB-231 human breast cancer cells and HeLa, human cervical carcinoma cells and MCF-10A human mammary epithelial cells were plated at 10,000 cells/well (96 well plate) in 50 μl of medium. After about 18 hours, an additional 50 μl of medium containing 2× the desired final concentration of the test compound (C-105) was added to each well (final vol. 100 μl/well). After 24 hours Alamar Blue reagent was added and fluorescence in the wells was read after 1 hour (BMG PheraStar Microplate Reader). % relative death was determined by setting the reading for 10,000 nM raptinal-treated cells to 100% dead cells and the reading for vehicle-treated cells to 0% dead cells. (Data is the average ±SEM of 3 independent experiments with 5 biological replicates for each sample within each independent experiment.)
FIG. 3 compares the ability of (±)-105 to kill ERα positive and ERα negative cells. The dose response tests the ability of (±)-105 to rapidly kill ERα positive and ERα negative cells. […] After 24 hours Alamar Blue reagent was added and fluorescence in the wells was read. % relative death was determined by setting the reading for […] raptinal-treated cells to 100% dead cells and the reading for vehicle-treated cells to 0% dead cells. […]

Row | Structure (SMILES) | inhibition of the synthesis of new proteins [1] | intracellular ATP levels [2] | UPR activation / induction of sp-XBP1 [3] | regrowth of cells after drug removal (TYS-Luc cells; 1 μM for 2 weeks, then 4 weeks without drug) | TYS-Luc cells killed (TYS-Luc cells; 1 μM, 2 weeks treatment) [%] | selectivity for ERα positive cancer cell lines ([4]; 0-10,000 nM, 24 hours) | effect in ERα negative cell lines ([4]; concentrations more than 10 times higher than those that kill ERα positive cells)
1 | O=C1Nc2c(C(F)(F)F)cccc2C1(c1ccc(O)cc1)c1ccc(OC(F)(F)F)cc1 (single isomer, unassigned; (-)) [(−)-105, 3-(4-hydroxyphenyl)-3-(4-(trifluoromethoxy)phenyl)-7-(trifluoromethyl)indolin-2-one] | near-quantitative | reduces intracellular ATP levels | much stronger UPR hyper-activator and inducer of sp-XBP1 than BHPI | no regrowth | 100 | – | –
2 | O=C1Nc2c(C(F)(F)F)cccc2C1(c1ccc(O)cc1)c1ccc(OC(F)(F)F)cc1 (racemic) [(±)-105, 3-(4-hydroxyphenyl)-3-(4-(trifluoromethoxy)phenyl)-7-(trifluoromethyl)indolin-2-one] | – | – | – | – | – | selective for ERα positive cancer cell lines | no effect
